{"source": "paper PMC9719519", "about": "“Non-classical ferroptosis inhibition by a small molecule targeting PHB2” (Nature Communications, 2022)", "assay_in_all_cases": "biochemical", "set-up_in_all_cases": "Eurofins recombinant human kinase profiling, remaining kinase activity as % of control, 10 uM ATP", "conditions_in_all_cases": "ATP 10 uM; read-out: %Ctrl@10 μM", "key": {"[1]": {"biological_target": "DYRK1B(h) (Homo sapiens, UniProt Q9Y463)", "sequence (Q9Y463 whole entry)": "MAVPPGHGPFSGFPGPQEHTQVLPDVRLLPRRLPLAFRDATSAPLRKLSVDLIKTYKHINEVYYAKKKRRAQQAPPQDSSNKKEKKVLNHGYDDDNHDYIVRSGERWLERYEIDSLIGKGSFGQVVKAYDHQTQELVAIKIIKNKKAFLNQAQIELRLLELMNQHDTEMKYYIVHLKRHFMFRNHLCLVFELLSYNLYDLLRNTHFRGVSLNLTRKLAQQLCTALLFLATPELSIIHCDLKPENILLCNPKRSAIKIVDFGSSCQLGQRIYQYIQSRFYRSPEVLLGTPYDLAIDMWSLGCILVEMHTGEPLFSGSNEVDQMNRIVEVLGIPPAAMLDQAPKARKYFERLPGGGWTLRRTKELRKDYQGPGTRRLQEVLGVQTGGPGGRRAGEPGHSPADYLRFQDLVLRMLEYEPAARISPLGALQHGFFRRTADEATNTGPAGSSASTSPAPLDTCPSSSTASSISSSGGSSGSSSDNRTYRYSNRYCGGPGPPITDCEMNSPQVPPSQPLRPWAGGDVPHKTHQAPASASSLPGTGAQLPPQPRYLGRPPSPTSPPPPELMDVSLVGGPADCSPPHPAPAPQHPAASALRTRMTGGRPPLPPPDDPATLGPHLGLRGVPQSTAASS", "outline": "(§1)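 Activity measured in a commercial panel of 401 recombinant human protein kinases run as a kinase profiling service.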"}, "[2]": {"biological_target": "T1, MAPKAP-K3(h) (Homo sapiens, UniProt Q16644)", "T1 construct": "gene MAPKAPK3", "outline": "as §1"}, "[3]": {"biological_target": "MYO3B(h) (Homo sapiens, UniProt Q8WXR4)", "outline": "as §1"}, "[4]": {"biological_target": "T2, GSK3α(h) (Homo sapiens, UniProt P49840)", "T2 construct": "gene GSK3A", "outline": "as §1"}, "[5]": {"biological_target": "T3, MEKK2(h) (Homo sapiens, UniProt Q9Y2U5)", "T3 construct": "gene MAP3K2", "outline": "as §1"}, "[6]": {"biological_target": "T4, SIK(h) (Homo sapiens, UniProt P57059)", "T4 construct": "gene SIK1", "outline": "as §1"}, "[7]": {"biological_target": "STK16(h) (Homo sapiens, UniProt O75716)", "sequence (O75716 whole entry)": "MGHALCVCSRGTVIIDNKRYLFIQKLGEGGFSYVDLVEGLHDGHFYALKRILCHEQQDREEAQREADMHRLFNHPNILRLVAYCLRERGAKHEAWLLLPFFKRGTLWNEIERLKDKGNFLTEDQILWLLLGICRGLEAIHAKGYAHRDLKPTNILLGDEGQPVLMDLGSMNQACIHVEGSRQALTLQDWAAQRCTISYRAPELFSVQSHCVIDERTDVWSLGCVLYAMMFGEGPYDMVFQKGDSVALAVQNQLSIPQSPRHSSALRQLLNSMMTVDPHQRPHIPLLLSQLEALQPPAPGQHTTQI", "outline": "as §1"}, "[8]": {"biological_target": "T5, CHK2(h) (Homo sapiens, UniProt O96017)", "T5 construct": "gene CHEK2", "outline": "as §1"}, "[9]": {"biological_target": "TTBK2(h) (Homo sapiens, UniProt Q6IQ55)", "sequence (Q6IQ55 whole entry)": "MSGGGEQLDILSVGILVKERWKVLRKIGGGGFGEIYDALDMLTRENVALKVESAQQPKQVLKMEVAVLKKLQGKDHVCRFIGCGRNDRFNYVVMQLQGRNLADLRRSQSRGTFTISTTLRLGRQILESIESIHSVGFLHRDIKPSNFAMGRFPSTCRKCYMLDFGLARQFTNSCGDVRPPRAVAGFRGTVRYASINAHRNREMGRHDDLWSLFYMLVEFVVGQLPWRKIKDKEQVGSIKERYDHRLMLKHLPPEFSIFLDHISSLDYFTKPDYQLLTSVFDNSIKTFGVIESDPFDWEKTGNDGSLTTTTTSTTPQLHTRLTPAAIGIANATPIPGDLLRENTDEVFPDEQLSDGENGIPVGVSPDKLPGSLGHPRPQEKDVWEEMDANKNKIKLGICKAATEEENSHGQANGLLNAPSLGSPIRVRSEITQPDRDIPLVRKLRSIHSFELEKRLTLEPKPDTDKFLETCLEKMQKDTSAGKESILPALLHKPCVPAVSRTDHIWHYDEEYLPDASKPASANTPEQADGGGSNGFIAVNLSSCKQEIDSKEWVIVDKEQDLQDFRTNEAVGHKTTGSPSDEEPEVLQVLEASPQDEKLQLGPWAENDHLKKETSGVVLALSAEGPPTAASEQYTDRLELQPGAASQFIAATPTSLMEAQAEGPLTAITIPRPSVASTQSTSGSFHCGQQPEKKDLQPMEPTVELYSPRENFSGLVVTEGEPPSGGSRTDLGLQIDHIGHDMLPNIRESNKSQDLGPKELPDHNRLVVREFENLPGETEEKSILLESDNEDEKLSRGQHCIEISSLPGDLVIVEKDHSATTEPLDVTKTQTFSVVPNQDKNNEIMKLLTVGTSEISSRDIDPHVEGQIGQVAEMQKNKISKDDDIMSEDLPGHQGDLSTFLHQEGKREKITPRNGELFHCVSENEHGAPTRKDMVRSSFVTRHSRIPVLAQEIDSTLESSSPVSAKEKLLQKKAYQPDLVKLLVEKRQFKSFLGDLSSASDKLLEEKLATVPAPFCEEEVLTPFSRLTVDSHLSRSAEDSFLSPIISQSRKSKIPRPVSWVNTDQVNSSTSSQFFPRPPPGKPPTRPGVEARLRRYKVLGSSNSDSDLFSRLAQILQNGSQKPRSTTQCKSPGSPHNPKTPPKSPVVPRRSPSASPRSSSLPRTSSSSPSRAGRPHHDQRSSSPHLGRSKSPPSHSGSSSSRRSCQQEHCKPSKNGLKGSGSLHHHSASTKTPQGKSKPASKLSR", "outline": "as §1"}, "[10]": {"biological_target": "T6, PI3 Kinase (p110(E545K)/p85)(h) (Homo sapiens, UniProt P42336, E545K)", "T6 construct": "gene PIK3CA", "outline": "as §1"}, "[11]": {"biological_target": "DAPK2(h) (Homo sapiens, UniProt Q9UIK4)", "sequence (Q9UIK4 whole entry)": "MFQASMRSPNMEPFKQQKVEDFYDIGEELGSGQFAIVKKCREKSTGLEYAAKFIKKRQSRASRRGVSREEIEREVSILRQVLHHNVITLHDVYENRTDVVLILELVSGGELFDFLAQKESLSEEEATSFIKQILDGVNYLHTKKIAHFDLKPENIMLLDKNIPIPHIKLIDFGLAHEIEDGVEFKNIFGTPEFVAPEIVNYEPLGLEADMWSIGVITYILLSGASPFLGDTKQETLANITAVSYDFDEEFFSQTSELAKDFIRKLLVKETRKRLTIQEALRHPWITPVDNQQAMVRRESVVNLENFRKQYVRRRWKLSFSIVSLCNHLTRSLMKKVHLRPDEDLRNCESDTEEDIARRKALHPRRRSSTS", "outline": "as §1"}, "[12]": {"biological_target": "Txk(h) (Homo sapiens, UniProt P42681)", "outline": "as §1"}, "[13]": {"biological_target": "JAK3(h) (Homo sapiens, UniProt P52333)", "outline": "as §1"}, "[14]": {"biological_target": "TBK1(h) (Homo sapiens, UniProt Q9UHD2)", "outline": "as §1"}, "[15]": {"biological_target": "T7, MST2(h) (Homo sapiens, UniProt Q13188)", "T7 construct": "gene STK3", "T7 sequence (Q13188 whole entry)": "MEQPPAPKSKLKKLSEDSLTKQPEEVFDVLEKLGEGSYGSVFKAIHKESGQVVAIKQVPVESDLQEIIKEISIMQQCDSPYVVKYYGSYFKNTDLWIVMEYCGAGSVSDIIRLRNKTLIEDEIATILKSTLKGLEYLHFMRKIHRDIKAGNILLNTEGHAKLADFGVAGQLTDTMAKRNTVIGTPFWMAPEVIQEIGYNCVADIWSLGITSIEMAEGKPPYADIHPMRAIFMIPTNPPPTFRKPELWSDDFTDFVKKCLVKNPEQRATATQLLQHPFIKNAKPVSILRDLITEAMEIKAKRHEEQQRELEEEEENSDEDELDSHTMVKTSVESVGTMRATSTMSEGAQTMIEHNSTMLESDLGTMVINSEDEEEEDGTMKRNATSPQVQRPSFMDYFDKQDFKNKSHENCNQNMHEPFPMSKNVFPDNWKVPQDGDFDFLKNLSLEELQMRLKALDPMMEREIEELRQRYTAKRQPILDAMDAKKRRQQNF", "outline": "as §1"}, "[16]": {"biological_target": "HIPK4(h) (Homo sapiens, UniProt Q8NE63)", "sequence (Q8NE63 whole entry)": "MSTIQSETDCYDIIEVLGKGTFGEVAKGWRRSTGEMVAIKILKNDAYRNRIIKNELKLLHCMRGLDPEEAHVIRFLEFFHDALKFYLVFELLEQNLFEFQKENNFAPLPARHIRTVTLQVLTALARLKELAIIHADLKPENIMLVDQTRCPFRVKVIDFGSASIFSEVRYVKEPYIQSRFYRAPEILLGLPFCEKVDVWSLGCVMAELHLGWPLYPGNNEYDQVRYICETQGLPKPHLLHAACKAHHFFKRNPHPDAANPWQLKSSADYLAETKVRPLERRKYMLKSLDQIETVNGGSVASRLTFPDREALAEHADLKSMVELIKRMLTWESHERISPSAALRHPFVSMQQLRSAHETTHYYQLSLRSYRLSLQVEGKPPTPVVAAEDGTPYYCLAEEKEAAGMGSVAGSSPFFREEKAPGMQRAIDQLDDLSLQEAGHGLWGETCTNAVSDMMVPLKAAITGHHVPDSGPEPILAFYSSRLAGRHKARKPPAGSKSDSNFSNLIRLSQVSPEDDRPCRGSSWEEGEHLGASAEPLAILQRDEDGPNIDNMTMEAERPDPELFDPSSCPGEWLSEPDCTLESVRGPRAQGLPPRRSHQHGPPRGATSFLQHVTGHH", "outline": "as §1"}, "[17]": {"biological_target": "ErbB2(h) (Homo sapiens, UniProt P04626)", "outline": "as §1"}, "[18]": {"biological_target": "T8, cKit(h) (Homo sapiens, UniProt P10721)", "T8 construct": "gene KIT", "outline": "as §1"}, "[19]": {"biological_target": "Haspin(h) (Homo sapiens, UniProt Q8TF76)", "outline": "as §1"}, "[20]": {"biological_target": "STK32B(h) (Homo sapiens, UniProt Q9NY57)", "sequence (Q9NY57 whole entry)": "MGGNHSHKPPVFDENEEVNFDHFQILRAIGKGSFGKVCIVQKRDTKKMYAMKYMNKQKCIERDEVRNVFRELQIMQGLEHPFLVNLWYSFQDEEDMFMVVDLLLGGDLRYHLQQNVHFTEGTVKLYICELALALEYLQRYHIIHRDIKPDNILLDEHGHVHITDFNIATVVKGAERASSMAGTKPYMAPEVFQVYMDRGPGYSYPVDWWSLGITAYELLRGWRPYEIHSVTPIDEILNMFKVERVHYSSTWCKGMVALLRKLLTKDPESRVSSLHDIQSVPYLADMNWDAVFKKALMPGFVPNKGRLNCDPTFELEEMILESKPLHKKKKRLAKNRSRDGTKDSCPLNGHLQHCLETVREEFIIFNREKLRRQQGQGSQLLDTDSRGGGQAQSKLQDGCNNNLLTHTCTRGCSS", "outline": "as §1"}, "[21]": {"biological_target": "T9, PKAcβ(h) (Homo sapiens, UniProt P22694)", "T9 construct": "gene PRKACB", "outline": "as §1"}, "[22]": {"biological_target": "CDK1/cyclinB(h) (Homo sapiens, UniProt P06493)", "sequence (P06493 whole entry)": "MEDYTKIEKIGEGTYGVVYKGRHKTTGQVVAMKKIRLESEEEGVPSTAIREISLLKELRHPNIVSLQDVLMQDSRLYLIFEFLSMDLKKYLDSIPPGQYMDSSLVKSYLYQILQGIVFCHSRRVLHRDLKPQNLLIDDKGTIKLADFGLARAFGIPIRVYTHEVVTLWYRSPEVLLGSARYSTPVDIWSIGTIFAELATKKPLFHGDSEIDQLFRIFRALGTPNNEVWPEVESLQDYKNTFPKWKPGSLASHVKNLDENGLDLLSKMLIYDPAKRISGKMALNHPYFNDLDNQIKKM", "sequence (P14635 whole entry partner)": "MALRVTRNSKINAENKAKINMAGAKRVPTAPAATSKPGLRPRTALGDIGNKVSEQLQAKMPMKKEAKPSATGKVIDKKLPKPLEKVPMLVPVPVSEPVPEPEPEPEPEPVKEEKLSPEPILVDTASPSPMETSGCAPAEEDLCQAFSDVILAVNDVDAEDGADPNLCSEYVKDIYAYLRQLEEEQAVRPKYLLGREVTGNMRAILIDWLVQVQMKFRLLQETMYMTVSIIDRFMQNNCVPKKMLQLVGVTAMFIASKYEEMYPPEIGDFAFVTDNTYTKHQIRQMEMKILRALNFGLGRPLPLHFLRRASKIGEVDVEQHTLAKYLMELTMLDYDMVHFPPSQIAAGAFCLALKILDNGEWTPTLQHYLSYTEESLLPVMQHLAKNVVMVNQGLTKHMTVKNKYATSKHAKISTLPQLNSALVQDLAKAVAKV", "outline": "as §1"}, "[23]": {"biological_target": "ULK2(h) (Homo sapiens, UniProt Q8IYT8)", "outline": "as §1"}}, "data": [{"smiles": "C1=C(c2nc(-c3cnn(C4CCNCC4)c3)cn3cc(-c4ccccc4)nc23)CCOC1", "note": "[YL-939]", "values": [{"measurement": "remaining activity at 10 µM", "setting": "[1]", "result": 97, "unit": "%"}, {"measurement": "remaining activity at 10 µM", "setting": "[2]", "result": 102, "unit": "%"}, {"measurement": "remaining activity at 10 µM", "setting": "[3]", "result": 89, "unit": "%"}, {"measurement": "remaining activity at 10 µM", "setting": "[4]", "result": 119, "unit": "%"}, {"measurement": "remaining activity at 10 µM", "setting": "[5]", "result": 100, "unit": "%"}, {"measurement": "remaining activity at 10 µM", "setting": "[6]", "result": 100, "unit": "%"}, {"measurement": "remaining activity at 10 µM", "setting": "[7]", "result": 100, "unit": "%"}, {"measurement": "remaining activity at 10 µM", "setting": "[8]", "result": 100, "unit": "%"}, {"measurement": "remaining activity at 10 µM", "setting": "[9]", "result": 87, "unit": "%"}, {"measurement": "remaining activity at 10 µM", "setting": "[10]", "result": 95, "unit": "%"}, {"measurement": "remaining activity at 10 µM", "setting": "[11]", "result": 138, "unit": "%"}, {"measurement": "remaining activity at 10 µM", "setting": "[12]", "result": 73, "unit": "%"}, {"measurement": "remaining activity at 10 µM", "setting": "[13]", "result": 91, "unit": "%"}, {"measurement": "remaining activity at 10 µM", "setting": "[14]", "result": 90, "unit": "%"}, {"measurement": "remaining activity at 10 µM", "setting": "[15]", "result": 78, "unit": "%"}, {"measurement": "remaining activity at 10 µM", "setting": "[16]", "result": 106, "unit": "%"}, {"measurement": "remaining activity at 10 µM", "setting": "[17]", "result": 72, "unit": "%"}, {"measurement": "remaining activity at 10 µM", "setting": "[18]", "result": 81, "unit": "%"}, {"measurement": "remaining activity at 10 µM", "setting": "[19]", "result": 100, "unit": "%"}, {"measurement": "remaining activity at 10 µM", "setting": "[20]", "result": 105, "unit": "%"}, {"measurement": "remaining activity at 10 µM", "setting": "[21]", "result": 94, "unit": "%"}, {"measurement": "remaining activity at 10 µM", "setting": "[22]", "result": 92, "unit": "%"}, {"measurement": "remaining activity at 10 µM", "setting": "[23]", "result": 77, "unit": "%"}]}]}
